In patent US9295732B2, “Conjugated TLR7 and/or TLR8 and TLR2 polycationic agonists” (CAYLA, priority 2013, dated 2016):

Columns and labels:
[1] = biological target: T1, human TLR2 (Homo sapiens, UniProt O60603); test: HEK-Blue hTLR2 NF-κB/AP-1 SEAP reporter assay; assay type: cell-based; details: HEK-Blue hTLR2 cells, 10 μg/mL to 10 pg/ml, 24 hours, OD at 655 nm, FIG. 3
T1 construct: host or cells: HEK293 (HEK-Blue™ hTLR2)
How it was run: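 HEK293 cells stably expressing the given TLR, or RAW 264.7-derived cells (50,000 or 100,000 cells/well respectively), carry an NF-κB/AP-1-inducible SEAP reporter. Conjugated TLR7-TLR2 agonists at final 10 μg/mL to 10 pg/ml, 24 h at 37° C. SEAP read colorimetrically as OD at 655 nm in detection medium.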

[2] = tested on: plasmid DNA (pDNA); test: Gel shift (mobility shift) assay of pDNA complexation; assay type: binding; details: pDNA:molecule ratio 3:24 (w:w), 0.8% agarose gel, compared to pDNA alone
How it was run: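 Complexes of pDNA with TLR7-TLR2 polyamine molecules run on 0.8% agarose in TAE at 135 V for 21 min, ethidium bromide stained and viewed under UV. Complexation scored as partial or complete retardation of pDNA migration versus pDNA alone, complexed pDNA appearing as a smear in wells.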

[3] = tested on: B16-F1 cells; test: Cell transfection with SEAP plasmid, B16-F1; assay type: cell-based, mouse; details: in complex with pVitro14 LGFP SEAP plasmid, 48 hours, SEAP expression; FIG. 5B
Experimental: The TLR7-TLR2 molecules were tested for their ability as polyamine molecules to transport plasmid DNA (pDNA) into cells. The pVitro14 LGFP SEAP plasmid (InvivoGen) was complexed to TLR7-TLR2 polyamine molecules and to the control cationic lipid transfection agent, LyoVec™ (InvivoGen). The human HEK293 (ATCC, CRL-1573) and mouse B16-F1 melanoma (ATCC, CRL-6323) cell lines were seeded at a density of 50 000 cells/well and 20 000 cells/well respectively, in the absence or presence of different volumes of the plasmid encoding for the SEAP protein in complex with TLR7-TLR2 polyamine molecules for 48 hours at 37° C. and 10% CO2. Transfection efficiency was assessed by measuring SEAP reporter gene expression: 20 μl of supernatant was sampled and mixed with 180 μl of QUANTI-Blue™ Detection (InvivoGen). In the presence of alkaline phosphatase SEAP, the color of QUANTI-Blue™ changes from pink to purple/blue. The intensity of the blue hue reflects the activity of SEAP. The levels of SEAP secretion were determined quantitatively by reading the OD at 620-655 nm using a spectrophotometer, iMark™ Microplate Reader (BIO-RAD).

[4] = tested on: B16-F1 tumor; test: In vivo mouse B16-F1 tumor model, molecule alone; set-up: species or system C57BL/6 mice; details: by day 23, intra-tumoral injections, FIG. 8A
Experimental: Measurements were performed under gas anesthesia.
The second group received intra-tumoral injections of CL413 molecule alone (a TLR7-TLR2 Pam2CSK4-based molecule). Third and forth groups received intra-tumoral injections of the TLR2 ligand, Pam2CSK4 alone, and the TLR7 ligand alone, respectively. A fifth group received a combined treatment of Pam2CSK4 and TLR7 ligand, in solution at the equivalent molecule quantity of the respective TLR2 and TLR7 moieties in CL413 (in 100 μl Bionolyte G5® with Pluronic® F-68 2%) for a total of 3 injections.

T1 sequence (O60603 21-784): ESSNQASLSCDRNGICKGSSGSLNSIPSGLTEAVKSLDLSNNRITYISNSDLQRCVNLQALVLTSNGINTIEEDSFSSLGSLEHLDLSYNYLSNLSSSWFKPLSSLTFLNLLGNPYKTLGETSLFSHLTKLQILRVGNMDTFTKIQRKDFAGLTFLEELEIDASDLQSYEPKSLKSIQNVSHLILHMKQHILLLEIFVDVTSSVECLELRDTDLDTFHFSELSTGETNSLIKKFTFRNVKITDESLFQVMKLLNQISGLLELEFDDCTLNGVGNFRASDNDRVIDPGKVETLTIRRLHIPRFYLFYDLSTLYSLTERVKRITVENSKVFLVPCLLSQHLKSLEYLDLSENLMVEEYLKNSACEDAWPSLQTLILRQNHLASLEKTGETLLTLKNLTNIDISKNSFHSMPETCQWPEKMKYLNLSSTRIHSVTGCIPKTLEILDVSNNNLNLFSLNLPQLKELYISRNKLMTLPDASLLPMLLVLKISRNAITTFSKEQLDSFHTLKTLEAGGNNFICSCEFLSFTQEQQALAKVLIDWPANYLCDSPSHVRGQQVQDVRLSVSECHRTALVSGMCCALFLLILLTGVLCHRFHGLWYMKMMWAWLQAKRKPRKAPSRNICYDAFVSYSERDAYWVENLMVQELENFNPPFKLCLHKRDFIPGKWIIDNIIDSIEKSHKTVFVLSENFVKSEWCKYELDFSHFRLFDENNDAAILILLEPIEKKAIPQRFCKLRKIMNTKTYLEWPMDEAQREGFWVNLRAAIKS

ability to activate hTLR2 [1]	Compound	ability to complex pDNA (retardation of pDNA migration in agarose gel) [2]	ability to transfect B16-F1 cells [3]	tumor volume [4]
activate hTLR2	CCCCCCCCCCCCCCCC(=O)OCC(CSC[C@H](N)C(=O)N[C@@H](CCC(=O)NCCCNCCCCNCCCN)C(=O)Nc1ccc(Cn2c(O)nc3c(N)nc(NCCCC)nc32)cc1)OC(=O)CCCCCCCCCCCCCCC (stereo partly drawn) [CL527, (6R,9S)-6,25-diamino-9-(4-((6-amino-2-(butylamino)-8-hydroxy-9H-purin-9-yl)methyl)phenylcarbamoyl)-7,12-dioxo-4-thia-8,13,17,22-tetraazapentacosane-1,2-diyl dipalmitate]	inability to migrate through an agarose gel	transfect B16-F1 cells	
activate hTLR2	CCCCCCCCCCCCCCCC(=O)OCC(CSC[C@H](N)C(=O)NCCCNCCCCNCCCNC(=O)CNC(=O)c1ccc(Cn2c(O)nc3c(N)nc(NCCCC)nc32)cc1)OC(=O)CCCCCCCCCCCCCCC (stereo partly drawn) [CL553, (20R)-20-amino-1-(4-((6-amino-2-(butylamino)-8-hydroxy-9H-purin-9-yl)methyl)phenyl)-1,4,19-trioxo-22-thia-2,5,9,14,18-pentaazapentacosane-24,25-diyl dipalmitate]	inability to migrate through an agarose gel	transfect B16-F1 cells	
activate hTLR2	CCCCCCCCCCCCCCCC(=O)OCC(CSC[C@H](N)C(=O)N[C@@H](COC(=O)c1ccc(Cn2c(O)nc3c(N)nc(NCCCC)nc32)cc1)C(=O)NCCCNCCCCNCCCN)OC(=O)CCCCCCCCCCCCCCC (stereo partly drawn) [CL514, (6R,9S)-6,23-diamino-9-((4-((6-amino-2-(butylamino)-8-hydroxy-9H-purin-9-yl)methyl)benzoyloxy)methyl)-7,10-dioxo-4-thia-8,11,15,20-tetraazatricosane-1,2-diyl dipalmitate]	inability to migrate through an agarose gel	transfect B16-F1 cells	

The remaining lines, values behind:

Compound	ability to activate hTLR2 [1]	ability to complex pDNA (retardation of pDNA migration in agarose gel) [2]	ability to transfect B16-F1 cells [3]	tumor volume [4]
(6S,9S,12S,15S,18S,21R)-6,25-diamino-21-(4-((6-amino-2-(butylamino)-8-hydroxy-9H-purin-9-yl)methyl)phenylcarbamoyl)-12,15,18-tris(4-aminobutyl)-9-(hydroxyl methyl)-7,10,13,16,19-pentaoxo-4-thia-8,11,14,17,20-pentaazapentacosane-1,2-diyl dipalmitate [CL413]	activate hTLR2	inability to migrate through an agarose gel	lack the ability to transfect cells	no increase in tumor volume
CCCCCCCCCCCCCCCC(=O)N[C@@H](CSCC(COC(=O)CCCCCCCCCCCCCCC)OC(=O)CCCCCCCCCCCCCCC)C(=O)N[C@@H](CO)C(=O)N[C@@H](CCCCN)C(=O)N[C@@H](CCCCN)C(=O)N[C@@H](CCCCN)C(=O)N[C@@H](CCCCN)C(=O)Nc1ccc(Cn2c(O)nc3c(N)nc(NCCCC)nc32)cc1 (stereo partly drawn) [CL534, ((6R,9S,12S,15S,18S,21S)-25-amino-21-(4-((6-amino-2-(butylamino)-8-hydroxy-9H-purin-9-yl)methyl)phenylcarbamoyl)-12,15,18-tris(4-aminobutyl)-9-(hydroxylmethyl)-7,10,13,16,19-pentaoxo-6-palmitamido-4-thia-8,11,14,17,20-pentaazapentacosane-1,2-diyl dipalmitate]	activate hTLR2	inability to migrate through an agarose gel	lack the ability to transfect cells	
